Earlier results as cited in US20200101067A1 (IRR, Inc., priority 2013, published 2020).
Where two headings read alike, the source gives them in different places.

Legend:
H1 receptor = H1 receptor (Homo sapiens, UniProt P35367); conditions: acidic pH, inflamed tissue
[1] = not given; remark: listed apart in the source

H1 receptor, sequence (P35367 whole entry): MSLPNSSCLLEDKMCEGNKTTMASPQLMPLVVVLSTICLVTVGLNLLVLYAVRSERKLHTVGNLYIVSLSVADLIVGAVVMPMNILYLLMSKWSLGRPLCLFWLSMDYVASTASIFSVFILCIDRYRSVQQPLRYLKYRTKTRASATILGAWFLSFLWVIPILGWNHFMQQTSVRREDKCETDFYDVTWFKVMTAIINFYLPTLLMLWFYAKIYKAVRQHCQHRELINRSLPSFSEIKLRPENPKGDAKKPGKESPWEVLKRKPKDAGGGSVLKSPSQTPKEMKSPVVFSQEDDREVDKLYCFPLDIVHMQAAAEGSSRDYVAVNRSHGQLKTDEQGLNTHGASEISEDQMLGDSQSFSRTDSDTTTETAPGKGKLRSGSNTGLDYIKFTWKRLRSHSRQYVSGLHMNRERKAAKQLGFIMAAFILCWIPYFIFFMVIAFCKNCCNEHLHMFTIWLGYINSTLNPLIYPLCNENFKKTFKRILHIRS

O=C(O)COCCN1CCN([C@H](c2ccccc2)c2ccc(Cl)cc2)CC1 [Levocetirizine, levocetirizine]
Enhanced receptor affinity over first generation mepyramine / first generation molecules (H1 receptor): 5 ×
Enhanced receptor affinity over first generation mepyramine / first generation molecules (H1 receptor; listed as levocetirizine): up to 5 ×
Time to steady state level (in vivo): 40 h
Rhinovirus-induced ICAM-1 and cytokine expression and viral replication (human rhinovirus; airway epithelial cells): inhibits
ICAM-1, IL-6, IL-8, TLR3 expression and NF-kappa B activation (human rhinovirus; stated as in vivo): decrease
Eosinophil migration (IL-4, IL-6, and IL-8): decrease
Inflammatory mediators IL-4, IL-6, and IL-8 (IL-4, IL-6, and IL-8): decrease
Principal side effect at higher doses ([1]; higher doses, up to 30 mg/day): Sedation
Dose that can be safely administered ([1]; studies in humans): up to 30 mg/day

CC(C)(O)c1ccccc1CC[C@@H](SCC1(CC(=O)O)CC1)c1cccc(/C=C/c2ccc3ccc(Cl)cc3n2)c1 [Montelukast, montelukast]
Plasma concentration area under the curve profile, IV 7 mg vs approved 10 mg oral tablet (IV 7 mg): comparable
Linear pharmacokinetics to dose (in vivo): ≤ 50 mg
Steady-state level reached (in vivo): less than two
Time to peak plasma level (in vivo): 3 to 4 h
Steady-state level reached (in vivo, listed as montelukast): two
Effect of a standard meal on oral bioavailability and Cmax (oral): not affected
Dose without clinically important adverse experiences ([1]; adult patients, 22 weeks): up to 200 mg/day
Dose without clinically important adverse experiences ([1]; short-term studies, approximately one week): up to 900 mg/day
